Drawing on ChEMBL document CHEMBL1201862, “PubChem BioAssay data set” (2004), this text covers IC50, EC50 and AC50 for 3 compounds.

Each structure is given as a SMILES string. Calls of active or inactive are those of the source.

The target in test [1] is Glyceraldehyde-3-phosphate dehydrogenase (Homo sapiens, UniProt P04406).
Test [2] addresses Intestinal-type alkaline phosphatase (Mus musculus, UniProt P24822). The test can be described thus: PubChem AID 488874. The test is classed as functional.
Test [3] deals with T1, Intestinal-type alkaline phosphatase (Homo sapiens, UniProt P09923). The test can be described thus: human intestinal alkaline phosphatase activators, dose response, biochemical, luminescence, uHTS hits (AID 463120). The test is classed as functional.
For test [4], the target named is Alkaline phosphatase, placental type (Homo sapiens, UniProt P05187). The test can be described thus: human placental alkaline phosphatase inhibition – biochemical, luminescence, confirmation (AID 1512). Type of test: functional.
Test [5] concerns the target T1, Intestinal-type alkaline phosphatase. The test can be described thus: activation of human intestinal alkaline phosphatase – biochemical, luminescent, uHTS hits, set 2, dose response (AID 488817).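 Also: potency of activators that raise enzyme activity.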 The test is classed as functional.
In test [6] the target is T2, Runt-related transcription factor 1/Core-binding factor subunit beta (Homo sapiens, UniProt Q01196+Q13951). The test can be described thus: disruptors of Runt domain/CBFb-SMMHC interaction – biochemical, FRET, Cerulean-Runt, Venus-CBFb-SMMHC, uHTS, […] (AID 1434). Type of test: protein assay.
Test [7] concerns Streptococcus sp. 'group A'. The test can be described thus: Streptococcus pyogenes SK(-)GAS viability under kanamycin – luminescence, BacTiterGlo, confirmation, counter-screen for streptokinase expression inhibitor project, dose response (AID 1900). Type of test: functional, organism-based. A general note: The purpose of a counterscreen is to sort out artefacts and off-target activity.

In test [8] the target is T2, Runt-related transcription factor 1/Core-binding factor subunit beta. The test can be described thus: Runt domain/CBFb-SMMHC interaction disruptors – biochemical, TR-FRET (AID 1438). The test is classed as protein assay. In general terms: TR-FRET usually uses a lanthanide donor and a delayed reading to cut background.
The test system of test [9] is Streptococcus. The test can be described thus: GAS UMAA2166 growth inhibition – luminescence, BacTiterGlo, counter-screen for streptokinase expression inhibitor project, dose response (AID 1915).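 Also: potency for reduction of bacterial viability or growth.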 The test is classed as functional, organism-based.
Test [10] relates to HEK293. The test can be described thus: inhibition of NOD1-driven NF-kB reporter – cell-based, luminescence, uHTS, primary screen (AID 1578). Type of test: functional. Particulars: Homo sapiens.
The subject of test [11] is HEK293. The test can be described thus: cells. Type of test: functional, cell-based. The conditions noted are these: Homo sapiens.
For test [12], the system named is HEK293. The test can be described thus: cells. Type of test: functional, cell-based. Particulars: Homo sapiens. The source holds these as a separate data set.
Test [13] addresses Nucleotide-binding oligomerization domain-containing protein 2 (Homo sapiens, UniProt Q9HC29). The test can be described thus: inhibition of NOD2-driven NF-kB reporter – cell-based, luminescence, uHTS, HEK293 (AID 1566). Type of test: functional.
Test [14] deals with HEK293. The test can be described thus: NOD2 signaling inhibitors in MDP-stimulated cells, cell-based, uHTS, luminescence (AID 2001). Type of test: functional. The conditions noted are these: Homo sapiens.
Test [15] concerns HEK293. The test can be described thus: cells. Type of test: functional, cell-based. The conditions noted are these: Homo sapiens. This is another data set of the same source.
Test [16] addresses G-protein coupled receptor 55 (Homo sapiens, UniProt Q9Y2T6). The test can be described thus: selective activators of receptor GPR55 – imaging, U2OS cells, beta-arrestin-GFP redistribution, primary screen (AID 1961). The test is classed as functional.
Test [17] can be described thus: reduction of Shn3 3'UTR-driven luciferase in osteoblasts – cell-based, Clone20 osteoblasts, firefly luciferase, cherry-picked, dose response (AID 624132).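 Also: firefly luciferase luminescence from reporter carrying the Shn3 3'UTR in osteoblasts.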 Type of test: functional.
Test [18] is described as follows: loss of viability in HepG2 cells – cell-based, CellTiter-Glo, cherry-picked, cytotoxicity control for Shn3 inhibitor project, dose response (AID 624134). The test is classed as functional.
The nature of test [19]: non-specific 3'UTR reporter inhibition in Clone20-Shn3RL – cell-based, Renilla luciferase, cherry-picked, counter-screen for Shn3 inhibitor project, dose response (AID 624133). Type of test: functional.
Test [20] deals with Paired box protein Pax-8 (Homo sapiens, UniProt Q06710). The test can be described thus: PAX8 transcriptional activity inhibition in RMG-I – RMG-I cells, luciferase, cherry-pick, dose response (AID 687027).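 Also: luciferase reporter driven by Pax8 target thyroperoxidase promoter measured by SteadyGlo luminescence.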 The test is classed as functional, cell-based.
A short description of test [21]: general cell-killing toxicity readout – plate reader, dry powder samples, cytotoxicity control for PAX8 inhibitor project, dose response (AID 743021). Type of test: functional, cell-based.

Chain of Alkaline phosphatase, placental type (P05187 whole entry): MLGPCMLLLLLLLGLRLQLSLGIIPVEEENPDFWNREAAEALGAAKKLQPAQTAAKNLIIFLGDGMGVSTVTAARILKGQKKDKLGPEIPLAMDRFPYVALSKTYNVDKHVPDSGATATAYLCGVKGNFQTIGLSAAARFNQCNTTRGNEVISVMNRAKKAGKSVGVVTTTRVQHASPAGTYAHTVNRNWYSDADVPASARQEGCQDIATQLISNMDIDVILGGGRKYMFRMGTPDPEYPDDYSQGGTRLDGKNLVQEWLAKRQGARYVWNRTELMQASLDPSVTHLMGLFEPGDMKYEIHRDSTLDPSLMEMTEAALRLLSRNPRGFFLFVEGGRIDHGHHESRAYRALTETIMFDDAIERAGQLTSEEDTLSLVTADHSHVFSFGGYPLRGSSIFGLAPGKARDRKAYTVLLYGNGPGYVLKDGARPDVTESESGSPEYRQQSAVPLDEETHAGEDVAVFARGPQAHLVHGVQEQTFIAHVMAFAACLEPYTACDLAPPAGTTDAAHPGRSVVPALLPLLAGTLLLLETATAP
T1 sequence (P09923 whole entry): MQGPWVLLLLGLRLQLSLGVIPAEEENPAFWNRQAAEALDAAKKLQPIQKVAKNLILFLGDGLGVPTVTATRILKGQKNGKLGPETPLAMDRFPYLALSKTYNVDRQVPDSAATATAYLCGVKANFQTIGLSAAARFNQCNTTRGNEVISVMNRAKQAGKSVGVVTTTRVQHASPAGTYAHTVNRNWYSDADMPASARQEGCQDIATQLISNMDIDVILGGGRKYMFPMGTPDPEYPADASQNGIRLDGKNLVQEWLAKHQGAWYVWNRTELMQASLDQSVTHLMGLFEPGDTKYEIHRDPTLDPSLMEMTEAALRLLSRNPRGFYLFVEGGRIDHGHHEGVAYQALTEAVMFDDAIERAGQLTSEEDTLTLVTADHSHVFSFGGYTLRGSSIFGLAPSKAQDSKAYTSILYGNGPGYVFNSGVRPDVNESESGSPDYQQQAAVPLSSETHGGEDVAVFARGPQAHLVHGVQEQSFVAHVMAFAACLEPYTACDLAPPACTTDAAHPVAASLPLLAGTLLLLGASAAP
T2 sequence (Q01196 whole entry, the tested form may be a part): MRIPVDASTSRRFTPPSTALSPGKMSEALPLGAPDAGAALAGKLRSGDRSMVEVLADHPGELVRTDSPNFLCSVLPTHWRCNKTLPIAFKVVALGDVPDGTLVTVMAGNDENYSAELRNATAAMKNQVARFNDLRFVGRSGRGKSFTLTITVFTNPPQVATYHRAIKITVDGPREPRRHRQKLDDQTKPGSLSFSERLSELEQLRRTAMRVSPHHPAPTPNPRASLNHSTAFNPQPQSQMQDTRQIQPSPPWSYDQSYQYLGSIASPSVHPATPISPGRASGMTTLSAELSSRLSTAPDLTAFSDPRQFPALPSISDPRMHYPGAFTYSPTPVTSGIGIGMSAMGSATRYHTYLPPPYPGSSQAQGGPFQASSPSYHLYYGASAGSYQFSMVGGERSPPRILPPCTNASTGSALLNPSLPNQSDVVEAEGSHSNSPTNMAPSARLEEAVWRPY
T2 sequence (Q13951 whole entry, the tested form may be a part): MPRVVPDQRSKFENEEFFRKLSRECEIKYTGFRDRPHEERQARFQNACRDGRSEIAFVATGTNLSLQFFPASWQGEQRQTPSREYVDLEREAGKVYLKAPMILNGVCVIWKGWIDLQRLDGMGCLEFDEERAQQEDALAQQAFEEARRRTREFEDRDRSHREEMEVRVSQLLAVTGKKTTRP
Chain of G-protein coupled receptor 55 (Q9Y2T6 whole entry): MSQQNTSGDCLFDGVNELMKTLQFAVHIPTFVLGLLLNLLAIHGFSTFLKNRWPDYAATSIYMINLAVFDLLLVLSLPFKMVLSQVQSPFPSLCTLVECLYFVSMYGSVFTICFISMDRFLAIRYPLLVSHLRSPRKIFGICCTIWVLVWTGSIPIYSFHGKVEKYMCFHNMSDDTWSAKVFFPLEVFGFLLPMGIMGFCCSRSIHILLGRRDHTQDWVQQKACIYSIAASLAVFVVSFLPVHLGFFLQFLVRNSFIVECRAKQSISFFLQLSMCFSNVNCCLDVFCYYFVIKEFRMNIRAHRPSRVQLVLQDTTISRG
Chain of Paired box protein Pax-8 (Q06710 whole entry): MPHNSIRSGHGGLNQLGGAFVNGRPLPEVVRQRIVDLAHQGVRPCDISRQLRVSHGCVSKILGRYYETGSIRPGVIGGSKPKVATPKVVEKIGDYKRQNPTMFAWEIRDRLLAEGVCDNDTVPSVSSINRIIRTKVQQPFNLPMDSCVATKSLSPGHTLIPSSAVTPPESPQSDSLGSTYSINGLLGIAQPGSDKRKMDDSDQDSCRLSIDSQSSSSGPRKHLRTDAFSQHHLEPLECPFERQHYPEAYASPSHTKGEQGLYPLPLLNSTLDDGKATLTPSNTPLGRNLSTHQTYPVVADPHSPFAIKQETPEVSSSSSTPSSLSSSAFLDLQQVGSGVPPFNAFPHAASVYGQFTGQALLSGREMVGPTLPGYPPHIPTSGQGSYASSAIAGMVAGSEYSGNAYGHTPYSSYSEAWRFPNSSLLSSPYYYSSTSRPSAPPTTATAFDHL
Chain of Glyceraldehyde-3-phosphate dehydrogenase (P04406 whole entry): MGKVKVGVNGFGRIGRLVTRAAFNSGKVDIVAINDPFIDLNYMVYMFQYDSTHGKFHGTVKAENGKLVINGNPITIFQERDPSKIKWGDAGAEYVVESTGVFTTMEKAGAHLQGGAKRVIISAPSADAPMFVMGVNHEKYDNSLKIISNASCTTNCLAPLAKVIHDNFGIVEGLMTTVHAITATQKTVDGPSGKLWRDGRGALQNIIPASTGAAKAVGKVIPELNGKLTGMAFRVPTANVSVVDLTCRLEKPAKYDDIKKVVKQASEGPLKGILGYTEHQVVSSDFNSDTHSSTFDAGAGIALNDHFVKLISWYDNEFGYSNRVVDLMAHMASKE
Chain of Nucleotide-binding oligomerization domain-containing protein 2 (Q9HC29 whole entry, the tested form may be a part): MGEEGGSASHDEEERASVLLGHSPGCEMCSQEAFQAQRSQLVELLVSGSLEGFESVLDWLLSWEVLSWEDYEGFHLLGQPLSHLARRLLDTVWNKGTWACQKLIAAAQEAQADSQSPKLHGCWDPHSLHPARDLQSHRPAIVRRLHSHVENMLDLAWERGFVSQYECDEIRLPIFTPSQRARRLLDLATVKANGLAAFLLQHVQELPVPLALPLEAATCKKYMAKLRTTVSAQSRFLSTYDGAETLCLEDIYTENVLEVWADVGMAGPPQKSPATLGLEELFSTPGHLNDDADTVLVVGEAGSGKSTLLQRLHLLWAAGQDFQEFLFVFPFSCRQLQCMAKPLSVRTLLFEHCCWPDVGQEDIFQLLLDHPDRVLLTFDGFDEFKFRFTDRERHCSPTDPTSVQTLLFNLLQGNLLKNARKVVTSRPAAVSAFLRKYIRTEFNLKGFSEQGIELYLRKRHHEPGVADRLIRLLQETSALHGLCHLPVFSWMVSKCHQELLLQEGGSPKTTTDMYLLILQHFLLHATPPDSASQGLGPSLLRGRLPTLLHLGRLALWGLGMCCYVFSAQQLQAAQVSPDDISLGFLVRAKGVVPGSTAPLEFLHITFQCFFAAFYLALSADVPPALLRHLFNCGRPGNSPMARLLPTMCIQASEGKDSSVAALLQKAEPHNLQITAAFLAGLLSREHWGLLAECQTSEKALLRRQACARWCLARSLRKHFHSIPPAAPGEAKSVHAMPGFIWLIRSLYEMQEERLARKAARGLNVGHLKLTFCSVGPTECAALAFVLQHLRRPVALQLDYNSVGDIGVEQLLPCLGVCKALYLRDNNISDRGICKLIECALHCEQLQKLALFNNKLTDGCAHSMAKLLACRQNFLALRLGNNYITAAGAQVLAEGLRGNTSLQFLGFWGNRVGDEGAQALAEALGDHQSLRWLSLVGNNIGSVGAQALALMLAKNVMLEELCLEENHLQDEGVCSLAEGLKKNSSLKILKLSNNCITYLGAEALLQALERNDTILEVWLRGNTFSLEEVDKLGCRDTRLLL
Chain of Intestinal-type alkaline phosphatase (Mus musculus, UniProt P24822) (P24822 whole entry): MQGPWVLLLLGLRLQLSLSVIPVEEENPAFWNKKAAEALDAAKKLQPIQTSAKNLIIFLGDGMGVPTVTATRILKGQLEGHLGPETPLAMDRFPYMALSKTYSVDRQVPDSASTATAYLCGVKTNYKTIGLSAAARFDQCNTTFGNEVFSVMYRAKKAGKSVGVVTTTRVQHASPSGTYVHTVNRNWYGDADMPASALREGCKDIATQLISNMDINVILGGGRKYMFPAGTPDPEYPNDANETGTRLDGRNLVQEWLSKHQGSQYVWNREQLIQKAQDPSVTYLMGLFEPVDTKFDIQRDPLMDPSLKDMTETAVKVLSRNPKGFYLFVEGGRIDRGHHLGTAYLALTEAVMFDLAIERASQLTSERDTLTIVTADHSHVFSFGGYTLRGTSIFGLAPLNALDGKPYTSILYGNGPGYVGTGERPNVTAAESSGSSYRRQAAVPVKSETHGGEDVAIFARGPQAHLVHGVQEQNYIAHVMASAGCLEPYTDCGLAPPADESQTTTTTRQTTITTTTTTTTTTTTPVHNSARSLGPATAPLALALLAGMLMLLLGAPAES

Regarding `Cc1cc(OCC(=O)Nc2nc[nH]n2)ccc1Cl`, the IC50 (as a rule, the point on the concentration scale where inhibition reaches its midpoint) in [1] was > 10 µM (inconclusive); in [2], > 100 µM (inactive); in test [4], > 100 µM (inactive). Moreover, the EC50 – broadly, the concentration that produces a half-maximal response – is 10.7 µM (active) in test [3] and 21 µM (active) in test [5].
With `COCCNC(=O)c1c(NC(=O)c2ccc(Br)o2)n(Cc2ccccc2)c2nc3ccccc3nc12`, the IC50 in test [6] was 2.14 µM (active); in test [8] it was > 100 µM (inactive). Also, the 50% effective concentration (EC50) was 1.9 µM (active) in [7] and 4.36 µM (active) in test [9].
As for `CCOc1ccc(C(=O)C(CCC(CN(C)C)C(=O)c2ccc(OCC)cc2)CN(C)C)cc1` (stereo unspecified), the EC50 in test [10] is 15.9 µM (active); in test [13], > 20 µM (inactive); in test [16], > 32 µM (inactive). Besides, the IC50 in test [11] was 1.53 µM (active); in [12], 6.72 µM (active); in [14], 2.48 µM (active); in test [15], > 20 µM (inactive). Further, the AC50 (usually the concentration at which the activity in the assay is half-maximal) in test [17] was 1.61 µM (active); in test [18], 6.77 µM (active); in [19], 7.72 µM (active); in test [20], 4.27 µM (active); in [21], 36.7 µM (active).
